Assay results reported in patent publication US20250115581A1, “SUBSTITUTED PIPERIDINES AS CK1A DEGRADERS” (Monte Rosa Therapeutics, Inc., priority 2022, published 2025).

Legend:
CK1α = molecular target: T1, CK1α (Homo sapiens, UniProt P48729+Q96SW2); experiment: CK1α NanoBit Assay (HiBiT-tagged CSNK1A1 in HEK293 cells, luminescence); format: cell-based; settings: 24 h
T1 construct: HEK293 clonal lines with CRISPR KI HiBiT tag on CSNK1A1; host or cells: HEK293 clonal line, CRISPR knock-in HiBiT at the CSNK1A1 locus, stably expressing LgBiT
How it was run: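 HEK293 with endogenous HiBiT-tagged CSNK1A1 and stable LgBiT, live-cell Endurazine substrate; compound added at 10 or 30 μM final top concentration after 16 h plating, then 24 h at 37 °C. Luminescence normalised to plate controls; DC50 by 3-parameter logistic fit, hill slope 1.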

CRBN/DDB1 = CRBN/DDB1 (Homo sapiens, UniProt Q96SW2); experiment: HTRF binding assay (displacement of Cy5-thalidomide probe from CRBN/DDB1); settings: CRBN/DDB1 2.5 nM, Cy5-Thalidomide 100 nM, 30 min; geometric mean; read-out: HTRF_Thali_Disp_DR_geo_IC50
Text: Binding of test compounds to CRBN/DDB1 was monitored in an HTRF assay using 1-[5-({2-[2-(2-{[2-(2,6-dioxopiperidin-3-yl)-1,3-dioxo-2,3-dihydro-1H-isoindol-4-yl]oxy}acetamido)ethoxy]ethyl}carbamoyl)pentyl]-3,3-dimethyl-2-[(1E,3E)-5-[(2E)-1,3,3-trimethyl-5-sulfo-2,3-dihydro-1H-indol-2-ylidene]penta-1,3-dien-1-yl]-3H-indol-1-ium-5-sulfonate as a fluorescent probe. In this assay, compounds displace the fluorescently labeled thalidomide-based probe bound to CRBN and fluorescence is monitored with increasing compound concentration. Assays were conducted in Greiner white 384 well HiBase plates (Cat. No 784075-25) in 10 μL total volume. A one pot detection solution of CRBN/DDB1 (2.5 nM), anti-His Terbium Cryptate Gold (1×, PerkinElmer Cat. #: 61HI2TLB), and Cy5-Thalidomide (100 nM, Tenova Cat.: T52461) was prepared in 20 mM HEPES, 20 mM NaCl, 0.2 mM TCEP, 0.2 mM EDTA, and 0.005% Tween20 was dispensed to each assay plate. Test compounds were stored in dry, ambient temperatures at 10 mM. A 10-point, 1:3 dilution series was prepared from 10 mM stock concentrations in Echo-compatible LDV plates. 10 nL of each compound dilution series was dispensed into assays wells using an Echo 650 (Labcyte inc. USA). 10 nL of 10 mM lenalidomide (Selleckchem Cat no. S1029) was transferred into the active-control wells for the assay and 10 nL of DMSO was transferred into the negative control wells. The assay was then allowed to incubate for 30 min at ambient temperature after transferring the test compounds. Plate measurements were taken on a Pherastar FSX (BMG Labtech, Germany) using the HTRF Red filter (Ex. 337 nm, em1: 620 nm, em2: 665 nm) (Flashes: 50, Integration time: 60-400 μs, Z-height: 10 mm, Ratio-multiplier: 10,000). Analysis, HTRF ratio and IC50 values were derived using KNIME analytics (KNIME Zurich) transformation and fitting within Collaborative Drug Discovery (Collaborative Drug Discovery USA) using a 4-parameter logistic fit. HTRF ratio calculation was performed using the following formula: […]
where em665 nm represents the measured emission at 665 nm upon excitation at 337 nm and em620 nm the measured emission at 620 nm upon excitation at 337 nm. The 4 parameter logistic fitting model was performed using the following formula: […]
where Y represents the HTRF ratio response (as defined previously), X the compound concentration in μM, Ymin the minimum response plateau, Ymax the maximum response plateau, IC50 the concentration of […] that gives a response half way between Ymin and Ymax and HillSlope the steepness of the family of curves. No fitting model constraints was applied on Ymin, or Ymax whilst IC50>0 and −0.5>HillSlope>−3 Cheng-Prusoff transformation
Ki values were derived from the geometric mean of the IC50 values using the Cheng-Prusoff transformation:
where [L] represents the concentration of fluorescent probe in […], Kd the affinity (binding constant) of the fluorescent probe in units of μM and IC50 the concentration of agonist that gives a response halfway between Ymin and Ymax (as described in 1.2.1)
Analysis and IC50 values were derived using KNIME analytics (KNIME, Zurich) transformation and fitting within Collaborative Drug Discovery (Collaborative Drug Discovery, USA) as described in 1.2.1. Ki values were derived from the geometric mean of the IC50 values using the Cheng-Prusoff transformation as described in 2.2.2. Data was visualized in GraphPad Prism 8.1.2 (GraphPad, USA) and reported as mean and standard deviation. Microsoft Office Excel 2012 (Redmond, WA) was used for calculation of mean and standard deviation.
IC50 data are reported in Table 3 for compounds in Table 1. In Table 3 below, According to the code, A represents a IC50 value of ≤0.1 μM, B represents a IC50 value >0.1 μM and ≤1 μM, C represents an IC50 value >1 μM.

Sequence of CRBN/DDB1 (Q96SW2 whole entry): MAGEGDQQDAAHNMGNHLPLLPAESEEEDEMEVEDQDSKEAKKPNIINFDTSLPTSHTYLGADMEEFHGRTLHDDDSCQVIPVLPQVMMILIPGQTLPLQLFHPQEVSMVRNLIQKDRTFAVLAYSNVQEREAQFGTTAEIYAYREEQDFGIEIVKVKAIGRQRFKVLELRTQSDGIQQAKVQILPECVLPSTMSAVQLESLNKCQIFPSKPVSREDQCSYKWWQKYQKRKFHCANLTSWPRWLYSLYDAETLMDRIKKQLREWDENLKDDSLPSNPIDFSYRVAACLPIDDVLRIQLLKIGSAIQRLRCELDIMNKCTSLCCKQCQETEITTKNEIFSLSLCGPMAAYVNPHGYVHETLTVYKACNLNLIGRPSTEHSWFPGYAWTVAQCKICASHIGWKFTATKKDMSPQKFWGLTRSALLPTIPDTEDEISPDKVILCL
Sequence of CRBN/DDB1 (Q16531 whole entry partner): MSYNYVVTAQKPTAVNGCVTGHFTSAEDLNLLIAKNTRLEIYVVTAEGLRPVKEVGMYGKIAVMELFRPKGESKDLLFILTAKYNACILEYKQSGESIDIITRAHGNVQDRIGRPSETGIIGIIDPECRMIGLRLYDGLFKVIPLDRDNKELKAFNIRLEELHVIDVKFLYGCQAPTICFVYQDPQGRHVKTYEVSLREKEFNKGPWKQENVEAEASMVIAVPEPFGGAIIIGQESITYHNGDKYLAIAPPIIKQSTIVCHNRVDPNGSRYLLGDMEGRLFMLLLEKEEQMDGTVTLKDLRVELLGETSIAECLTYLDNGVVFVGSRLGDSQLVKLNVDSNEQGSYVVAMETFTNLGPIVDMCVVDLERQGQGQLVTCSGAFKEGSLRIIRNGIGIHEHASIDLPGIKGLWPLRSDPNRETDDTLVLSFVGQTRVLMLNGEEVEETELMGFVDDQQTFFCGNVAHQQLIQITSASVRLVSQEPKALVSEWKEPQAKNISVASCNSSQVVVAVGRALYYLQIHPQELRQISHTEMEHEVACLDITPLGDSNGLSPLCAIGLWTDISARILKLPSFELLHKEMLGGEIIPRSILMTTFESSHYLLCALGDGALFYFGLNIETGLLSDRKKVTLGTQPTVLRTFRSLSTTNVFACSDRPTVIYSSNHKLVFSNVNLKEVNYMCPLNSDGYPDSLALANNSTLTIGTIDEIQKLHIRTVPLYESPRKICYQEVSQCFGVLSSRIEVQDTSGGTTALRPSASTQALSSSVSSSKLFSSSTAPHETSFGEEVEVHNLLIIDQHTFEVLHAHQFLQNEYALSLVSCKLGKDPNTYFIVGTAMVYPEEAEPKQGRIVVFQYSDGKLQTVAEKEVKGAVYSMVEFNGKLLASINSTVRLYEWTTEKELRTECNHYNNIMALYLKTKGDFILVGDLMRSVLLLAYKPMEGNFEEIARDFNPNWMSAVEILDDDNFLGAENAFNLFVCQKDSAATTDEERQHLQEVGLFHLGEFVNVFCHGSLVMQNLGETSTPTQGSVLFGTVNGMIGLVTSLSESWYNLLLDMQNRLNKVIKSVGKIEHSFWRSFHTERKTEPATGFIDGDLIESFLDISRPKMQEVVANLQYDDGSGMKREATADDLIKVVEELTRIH
T1 sequence (P48729 whole entry): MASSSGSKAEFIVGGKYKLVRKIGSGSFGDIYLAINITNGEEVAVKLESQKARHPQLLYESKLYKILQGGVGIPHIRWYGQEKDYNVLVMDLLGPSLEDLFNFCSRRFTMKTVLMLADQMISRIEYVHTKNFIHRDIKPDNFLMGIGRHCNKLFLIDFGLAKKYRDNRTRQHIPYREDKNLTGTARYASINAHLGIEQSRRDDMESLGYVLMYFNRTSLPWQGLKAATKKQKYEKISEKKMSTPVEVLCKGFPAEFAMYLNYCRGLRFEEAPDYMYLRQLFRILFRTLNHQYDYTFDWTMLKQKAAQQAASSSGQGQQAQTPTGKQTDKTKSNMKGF
T1 sequence (Q96SW2 whole entry): as the sequence (Q96SW2 whole entry) above
T1 sequence (Q16531 whole entry partner): as the sequence (Q16531 whole entry partner) above

| Structure (SMILES) | DC50 (CK1α) [µM] | IC50 (CRBN/DDB1) [nM] |
| --- | --- | --- |
| Cc1ccc(N2C(=O)N(c3ccc4c(c3)CN(C3CCC(=O)NC3=O)C4=O)C[C@@H]2C)cc1 (stereo partly drawn) [Compound 145, 3-(5-((S)-4-methyl-2-oxo-3-(p-tolyl)imidazolidin-1-yl)-1-oxoisoindolin-2-yl)piperidine-2,6-dione] | ≤ 0.1 | 100 to 1000 |
| O=C1CCC(N2Cc3cc(N4CCN(c5ccc(C6COC6)cc5)C4=O)ccc3C2=O)C(=O)N1 (centres unmarked) [Compound 146, 3-(5-(3-(4-(oxetan-3-yl)phenyl)-2-oxoimidazolidin-1-yl)-1-oxoisoindolin-2-yl)piperidine-2,6-dione] | ≤ 0.1 | 100 to 1000 |
| COCc1cccc(N2C(=O)N(c3ccc4c(c3)CN(C3CCC(=O)NC3=O)C4=O)C[C@H]2C)c1 (stereo partly drawn) [Compound 149, 3-(5-((R)-3-(3-(methoxymethyl)phenyl)-4-methyl-2-oxoimidazolidin-1-yl)-1-oxoisoindolin-2-yl)piperidine-2,6-dione] | ≤ 0.1 | 100 to 1000 |
| Cc1ccc(N2CCN(c3ccc4c(c3)CN(C3CCC(=O)NC3=O)C4=O)C2=O)c(C)c1 (centres unmarked) [Compound 150, 3-(5-(3-(2,4-dimethylphenyl)-2-oxoimidazolidin-1-yl)-1-oxoisoindolin-2-yl)piperidine-2,6-dione] | ≤ 0.1 | 100 to 1000 |
| Cc1ccc(N2C(=O)N(c3ccc4c(c3)CN(C3CCC(=O)NC3=O)C4=O)C[C@H]2C)cn1 (stereo partly drawn) [Compound 151, 3-(5-((R)-4-methyl-3-(6-methylpyridin-3-yl)-2-oxoimidazolidin-1-yl)-1-oxoisoindolin-2-yl)piperidine-2,6-dione] | ≤ 0.1 | 100 to 1000 |
| O=C1CCC(N2Cc3cc(N4CC5(CC5)N(c5ccccc5)C4=O)ccc3C2=O)C(=O)N1 (centres unmarked) [Compound 152, 3-(1-oxo-5-(5-oxo-4-phenyl-4,6-diazaspiro[2.4]heptan-6-yl)isoindolin-2-yl)piperidine-2,6-dione] | ≤ 0.1 | 100 to 1000 |
| O=C1CCC(N2Cc3cc(N4CCN(C5CC6(CCC6)C5)C4=O)ccc3C2=O)C(=O)N1 (centres unmarked) [Compound 153, 3-(1-oxo-5-(2-oxo-3-(spiro[3.3]heptan-2-yl)imidazolidin-1-yl)isoindolin-2-yl)piperidine-2,6-dione] | 0.1 to 1 | 100 to 1000 |
| CC(c1ccccc1)N1CCN(c2ccc3c(c2)CN(C2CCC(=O)NC2=O)C3=O)C1=O (centres unmarked) [Compound 154, 3-(1-oxo-5-(2-oxo-3-(1-phenylethyl)imidazolidin-1-yl)isoindolin-2-yl)piperidine-2,6-dione] | 0.1 to 1 | 100 to 1000 |
| Cc1ccc(N2C(=O)N(c3ccc4c(c3)CN(C3CCC(=O)NC3=O)C4=O)C[C@@H]2C)cn1 (stereo partly drawn) [Compound 155, 3-(5-((S)-4-methyl-3-(6-methylpyridin-3-yl)-2-oxoimidazolidin-1-yl)-1-oxoisoindolin-2-yl)piperidine-2,6-dione] | 0.1 to 1 | 100 to 1000 |
| Cc1ccc(N2C(=O)N(c3ccc4c(c3)CN(C3CCC(=O)NC3=O)C4=O)C[C@H]2C)nc1 (stereo partly drawn) [Compound 156, 3-(5-((R)-4-methyl-3-(5-methylpyridin-2-yl)-2-oxoimidazolidin-1-yl)-1-oxoisoindolin-2-yl)piperidine-2,6-dione] | 0.1 to 1 | 100 to 1000 |
| COC[C@H]1CN(c2ccc3c(c2)CN(C2CCC(=O)NC2=O)C3=O)C(=O)N1c1ccc(C)cc1 (stereo partly drawn) [Compound 157, 3-(5-((R)-4-(methoxymethyl)-2-oxo-3-(p-tolyl)imidazolidin-1-yl)-1-oxoisoindolin-2-yl)piperidine-2,6-dione] | 0.1 to 1 | 100 to 1000 |
| Cc1ccc(N2C(=O)N(c3ccc4c(c3)CN(C3CCC(=O)NC3=O)C4=O)C[C@@H]2C(F)F)cc1 (stereo partly drawn) [Compound 158, 3-(5-((R)-4-(difluoromethyl)-2-oxo-3-(p-tolyl)imidazolidin-1-yl)-1-oxoisoindolin-2-yl)piperidine-2,6-dione] | 0.1 to 1 | 100 to 1000 |
| O=C1CCC(N2Cc3cc(N4CCN(C5CCC5)C4=O)ccc3C2=O)C(=O)N1 (centres unmarked) [Compound 159, 3-(5-(3-cyclobutyl-2-oxoimidazolidin-1-yl)-1-oxoisoindolin-2-yl)piperidine-2,6-dione] | 0.1 to 1 | > 1000 |
| O=C1CCC(N2Cc3cc(N4CCN(C5C6CCCC65)C4=O)ccc3C2=O)C(=O)N1 (centres unmarked) [Compound 160, 3-(5-(3-(bicyclo[3.1.0]hexan-6-yl)-2-oxoimidazolidin-1-yl)-1-oxoisoindolin-2-yl)piperidine-2,6-dione] | 0.1 to 1 | 100 to 1000 |
| C[C@@H]1CN(c2ccc3c(c2)CN(C2CCC(=O)NC2=O)C3=O)C(=O)N1C1CCOC1 (stereo partly drawn) [Compound 161, 3-(5-((4R)-4-methyl-2-oxo-3-(tetrahydrofuran-3-yl)imidazolidin-1-yl)-1-oxoisoindolin-2-yl)piperidine-2,6-dione] | 0.1 to 1 | 100 to 1000 |
| O=C1CCC(N2Cc3cc(N4CCN(C5CCOC5)C4=O)ccc3C2=O)C(=O)N1 (centres unmarked) [Compound 162, 3-(1-oxo-5-(2-oxo-3-(tetrahydrofuran-3-yl)imidazolidin-1-yl)isoindolin-2-yl)piperidine-2,6-dione] | 0.1 to 1 | 100 to 1000 |
| CN1CCN(c2ccc(N3CCN(c4ccc5c(c4)CN(C4CCC(=O)NC4=O)C5=O)C3=O)cc2)CC1 (centres unmarked) [Compound 163, 3-(5-(3-(4-(4-methylpiperazin-1-yl)phenyl)-2-oxoimidazolidin-1-yl)-1-oxoisoindolin-2-yl)piperidine-2,6-dione] | 0.1 to 1 | 100 to 1000 |
| O=C1CCC(N2Cc3cc(N4CCN(C5CC5)C4=O)ccc3C2=O)C(=O)N1 (centres unmarked) [Compound 164, 3-[5-(3-cyclopropyl-2-oxo-imidazolidin-1-yl)-1-oxo-isoindolin-2-yl]piperidine-2,6-dione] | 0.1 to 1 | 100 to 1000 |
| CN1CCN(c2cccc(N3CCN(c4ccc5c(c4)CN(C4CCC(=O)NC4=O)C5=O)C3=O)c2)CC1 (centres unmarked) [Compound 165, 3-(5-(3-(3-(4-methylpiperazin-1-yl)phenyl)-2-oxoimidazolidin-1-yl)-1-oxoisoindolin-2-yl)piperidine-2,6-dione] | 0.1 to 1 | 100 to 1000 |
| COCc1cc(C)ccc1N1CCN(c2ccc3c(c2)CN(C2CCC(=O)NC2=O)C3=O)C1=O (centres unmarked) [Compound 166, 3-(5-(3-(2-(methoxymethyl)-4-methylphenyl)-2-oxoimidazolidin-1-yl)-1-oxoisoindolin-2-yl)piperidine-2,6-dione] | 0.1 to 1 | 100 to 1000 |
| Cc1ccccc1N1C(=O)N(c2ccc3c(c2)CN(C2CCC(=O)NC2=O)C3=O)C[C@H]1C (stereo partly drawn) [Compound 167, 3-(5-((R)-4-methyl-2-oxo-3-(o-tolyl)imidazolidin-1-yl)-1-oxoisoindolin-2-yl)piperidine-2,6-dione] | 0.1 to 1 | 100 to 1000 |
| COCc1ccccc1N1CCN(c2ccc3c(c2)CN(C2CCC(=O)NC2=O)C3=O)C1=O (centres unmarked) [Compound 168, 3-(5-(3-(2-(methoxymethyl)phenyl)-2-oxoimidazolidin-1-yl)-1-oxoisoindolin-2-yl)piperidine-2,6-dione] | 0.1 to 1 | 100 to 1000 |
